Experimental data from patent EP0006061A1, “Medicinal compound consisting of a derivative of cyclopentyl aldehyde” (INSTITUT DE RECHERCHES CHIMIQUES ET BIOLOGIQUES APPLIQUEES …, priority 1978, dated 1979).
≈ marks a conversion by molar mass, not a printed value. Read-outs that look alike come from different tables or passages of the source.

Key:
[1] = tested on: Proteus vulgaris (souche 1557); assay: bacteriostatic activity (MIC); assay type: cell-based; conditions: read-out: CMI
Protocol: (§1) Les essais pharmaceutiques qui ont été mis en oeuvre avec les produits des exemples 1 et 4, ont été résumés ci-après : • 1°/ essais avec l'exemple 1 • a/ activité bactériostatique L' α-(2-formyl-3-méthyl-cyclopentyl)-acétal- déhyde inhibe les bactéries Gram (+) et Gram (-). Les CMI (concentration minimale inhibitrice) sont les suivantes : 0,75 mg/ml sur Staphylococcus aureus Londres, 1,2 mg/ml sur Escherichia coli, et 1,5 mg/ml sur Proteus • b/ activité antispasmodique : Les DE-50 du produit de l'exemple 1 ont été déterminés • (i) in vitro sur iléon isolé de cobaye vis à vis de l'histamine : DE - 50 = 50 γ/ml; • (ii) in vivo sur l'animal vivant selon la méthode de KONZETT & ROESLLER : DE - 50 = 2,6 mg/kg par administration i.v. • c/ activité antianaphylactique : Des cobayes mâles sont sensibilisés par deux injections de 0,5 ml d'une solution d'albumine à 2 g/1, à deux jours d'intervalle. Quatre semaines aprës,le choc anaphylactique mortel est provoqué par injection i.v. de 0,2 ml d'une solution aqueuse d'ovalbumine à 2 g/1. Les produits à tester sont administrés 30 mn avant (administration i.p.) ou en même temps (administration i.v.) que l'injection provoquant ledit choc anaphylactique. Les résultats sont donnés dans le tableau I pour le produit de l'exemple 1 et la Prométhazine en tant que produit de référence : [formula] • 2°/ essais avec le produit de l'exemple 4 (constitué par un mélange de 87 % en poids d'isomère "cis-trans" et 13 % en poids d'isomère "trans-cis). • a/ activité bactériostatigue : Le produit de l'exemple 4 inhibe les bactéries Gram (+) et Gram (-). Ses CMI sont les suivantes : • 1,5 mg/m sur Staphylococcus aureus, Londres • 1 mg/ml sur Escherichia coli (souche 548) • 1,75 mg/ml sur Proteus vulgaris (souche 1557) • 2,5 mg/ml sur Klebsiella pneumoniae (souche 433), • 1 mg/ml sur Salmonella typhi murium (souche IP), • 1,5 mg/ml sur Staphylococcus aureus (souche 634), • 1,25 mg/ml sur Streptococcus (souche 1178) • 1,25 mg/ml sur Bacillus substilis, (les souches 548, 1557, 433, 634, et 1178 étant celles du catalogue de la collection du "Centre International de Distribution de Souches et d'Information sur les Types Microbiens" de . Lausanne, et la souche "IP" provenant de l'Institut Pasteur de Paris. • b/ activité bactéricide Le produit de l'exemple 4 détruit les bactéries Gram (+) et Gram (-). Ses CMB (concentration minimalebactéricide) déterminées sur milieu solide (quand moins de 0,01% de germes survivent) sont : • 1,75 mg/ml sur Staphylococcus aureus Londres • 1,5 mg/ml sur Escherichia coli (souche 548) • 2 mg/ml sur Proteus vulgaris (souche 1557) • 3 mg/ml sur Klebsiella pneumoniae (souche 433), • 1,25 mg/ml sur Salmonella typhi murium (souche I.P.) • 1,75 mg/ml sur Staphylococcus aureus (souche 634) • 2 mg/ml sur Streptococcus (souche 1178) • 2,5 mg/ml sur Bacillus substilis. • c/ activité bronchospatique Des cobayes mâles ou femelles [20 animaux (pesant 300-500 g) par dose et par produit à tester] sont exposés à un aérosol de l'exemple 4 (50 g/l en solution eau-éthanol) ou de Prométhazine (produit de référence) pendant 10 mn.

[2] = tested on: Escherichia coli (souche 548); assay: bacteriostatic activity (MIC); assay type: cell-based; conditions: read-out: CMI
Protocol: as §1

[3] = tested on: Salmonella typhi murium (souche IP); assay: bacteriostatic activity (MIC); assay type: cell-based; conditions: Salmonella enterica, read-out: CMI
Protocol: as §1

[4] = tested on: Staphylococcus aureus (souche 634); assay: bacteriostatic activity (MIC); assay type: cell-based; conditions: read-out: CMI
Protocol: as §1

[5] = tested on: Streptococcus (souche 1178); assay: bacteriostatic activity (MIC); assay type: cell-based; conditions: read-out: CMI
Protocol: as §1

[6] = tested on: Klebsiella pneumoniae (souche 433); assay: bacteriostatic activity (MIC); assay type: cell-based; conditions: read-out: CMI
Protocol: as §1

Bacillus substilis [7] = assay: bacteriostatic activity (MIC); assay type: cell-based; conditions: read-out: CMI
Protocol: as §1

[8] = tested on: Proteus vulgaris (souche 1557); assay: bactericidal activity (MBC) on solid medium; assay type: cell-based; conditions: less than 0,01% of germs survive, read-out: CMB (concentration minimalebactéricide)
Protocol: as §1

[9] = tested on: Escherichia coli (souche 548); assay: bactericidal activity (MBC) on solid medium; assay type: cell-based; conditions: less than 0,01% of germs survive, read-out: CMB (concentration minimalebactéricide)
Protocol: as §1

[10] = tested on: Salmonella typhi murium (souche I.P.); assay: bactericidal activity (MBC) on solid medium; assay type: cell-based; conditions: Salmonella enterica, less than 0,01% of germs survive, read-out: CMB (concentration minimalebactéricide)
Protocol: as §1

[11] = tested on: Staphylococcus aureus (souche 634); assay: bactericidal activity (MBC) on solid medium; assay type: cell-based; conditions: less than 0,01% of germs survive, read-out: CMB (concentration minimalebactéricide)
Protocol: as §1

[12] = tested on: Streptococcus (souche 1178); assay: bactericidal activity (MBC) on solid medium; assay type: cell-based; conditions: less than 0,01% of germs survive, read-out: CMB (concentration minimalebactéricide)
Protocol: as §1

[13] = tested on: Klebsiella pneumoniae (souche 433); assay: bactericidal activity (MBC) on solid medium; assay type: cell-based; conditions: less than 0,01% of germs survive, read-out: CMB (concentration minimalebactéricide)
Protocol: as §1

[14] = tested on: Staphylococcus aureus Londres; assay: bactericidal activity (MBC) on solid medium; assay type: cell-based; conditions: less than 0,01% of germs survive, read-out: CMB (concentration minimalebactéricide)
Protocol: as §1

Bacillus substilis [15] = assay: bactericidal activity (MBC) on solid medium; assay type: cell-based; conditions: less than 0,01% of germs survive, read-out: CMB (concentration minimalebactéricide)
Protocol: as §1

cobayes [16] = assay: histamine aerosol bronchospasm (time to apnoea); assay type: in vivo; conditions: aerosol for 10 min before histamine aerosol, controls 108 ± 18
Protocol: Les essais pharmaceutiques qui ont été mis en oeuvre avec les produits des exemples 1 et 4, ont été résumés ci-après : • 1°/ essais avec l'exemple 1 • a/ activité bactériostatique L' α-(2-formyl-3-méthyl-cyclopentyl)-acétal- déhyde inhibe les bactéries Gram (+) et Gram (-). Les CMI (concentration minimale inhibitrice) sont les suivantes : 0,75 mg/ml sur Staphylococcus aureus Londres, 1,2 mg/ml sur Escherichia coli, et 1,5 mg/ml sur Proteus • b/ activité antispasmodique : Les DE-50 du produit de l'exemple 1 ont été déterminés • (i) in vitro sur iléon isolé de cobaye vis à vis de l'histamine : DE - 50 = 50 γ/ml; • (ii) in vivo sur l'animal vivant selon la méthode de KONZETT & ROESLLER : DE - 50 = 2,6 mg/kg par administration i.v. • c/ activité antianaphylactique : Des cobayes mâles sont sensibilisés par deux injections de 0,5 ml d'une solution d'albumine à 2 g/1, à deux jours d'intervalle. Quatre semaines aprës,le choc anaphylactique mortel est provoqué par injection i.v. de 0,2 ml d'une solution aqueuse d'ovalbumine à 2 g/1. Les produits à tester sont administrés 30 mn avant (administration i.p.) ou en même temps (administration i.v.) que l'injection provoquant ledit choc anaphylactique. Les résultats sont donnés dans le tableau I pour le produit de l'exemple 1 et la Prométhazine en tant que produit de référence : [formula] • 2°/ essais avec le produit de l'exemple 4 (constitué par un mélange de 87 % en poids d'isomère "cis-trans" et 13 % en poids d'isomère "trans-cis). • a/ activité bactériostatigue : Le produit de l'exemple 4 inhibe les bactéries Gram (+) et Gram (-). […]

acute toxicity (LD50) = assay: acute toxicity (LD50); set-up: species or system souris; conditions: in vivo, mouse
Protocol: Les DL-50 du poids de l'exemple 4 chez la souris sont les suivantes : • DL-50 i.p. = 18 ± 3 mg/kg • DL-50 i.v. - 20 ± 3 mg/kg • DL-50 p.o. = 282 ± 3 mg/kg • DL-50 s.c. > 1000 mg/kg • DL-50 aérosol = 22 ± 3 mg/kg

rat femelle = assay: anti-inflammatory activity, carrageenin oedema test; assay type: in vivo
From the text: L'activité anti-inflammatoire de l'exemple 4 a été étudiée chez le rat femelle (de poids 100 g) selon le test de l'oedème à la carragéenine.Les résultats sont donnés dans le tableau IV où l'Indométacine est utilisée comme produit de référence : […]

iléon isolé de cobaye = assay: antianaphylactic activity in vitro: albumin-induced contraction of ileum from sensitised animals; assay type: cell-based; conditions: for amplitude des contractions: 2 min contact, 200 µg albumin, controls 147 ± 32
Protocol: Des cobayes mâles sont sensibilises par une injection i.p. de 100 mg/kg d'ovalbumine dans un volume égal d'adjuvant de Freund. Quatre semaines après, les animaux sont sacrifiés, on recueille chaque iléon qui est placé à 33°C dans un bain de Thyrode. Une contraction est provoquée par addition d'une dose de 200 µg d'albumine au liquide de survie. L'amplitude des contractions des témoins est comparée à l'amplitude des contractions après mise en contact du produit de l'exemple 4 pendant 2 mn. Les résultats donnés dans le tableau III montrent que le produit de l'exemple 4 réduit l'amplitude des contractions de l'iléon isolé de cobaye , cette réduction étant statistiquement significative.

duodénum isolé de rat [17] = assay: antispasmodic activity on isolated duodenum against barium chloride; assay type: cell-based; conditions: against BaCl2 (0,3 µg/ml), read-out: DE-50 (the source's name)
Protocol: (§2) L'activité antispasmodique du produit de l'exemple 4 a été étudiée sur le duodénum isolé de rat vis à vis de l'acétvlcholine et du chlorure de baryum. Les DE-50 du produit de l'exemple 4 sont : • (i) 13 µg/ml vis à vis de l'acétycholine (0,2 µg/ml), et • (ii) 10 µg/ml vis à vis de BaCl2 (0,3 µg/ml). g/ toxicité

duodénum isolé de rat [18] = assay: antispasmodic activity on isolated duodenum against acetylcholine; assay type: cell-based; conditions: against acetylcholine (0,2 µg/ml), read-out: DE-50 (the source's name)
Protocol: as §2

cobayes [19] = assay: antianaphylactic activity: ovalbumin aerosol in sensitised animals (time to dyspnoea); assay type: in vivo; conditions: aerosol pretreatment, controls 94 ± 39
From the text: Des cobayes (mâles ou femelles) sont sensibilisés à l'ovalbumine quatre semaines avant le début de l'expérience. Chaque animal est exposé à un aérosol d'ovalbumine (obtenu à partir d'un milieu aqueux contenant 50 g/1 d'ovalbumine). Le choc anaphylactique se manifeste par l'apparition d'une dyspnée intense. Les temps d'apparition de la dyspnée sont comparés entre lot témoin et lots préalablement traités avec un aérosol du produit de l'exemple 4 (50 g/1 dans une solution eau-éthanol). Les résultats donnés dans le tableau IV, montrent que le produit de l'exemple 4 […] le temps d'apparition des troubles respiratoires provoqués par l'aérosol d'ovalbumine .

Work on `C=C(C=O)C1CCC(C)C1C=O` (stereo not drawn) [Ex. 4, α-(2-formyl-3-méthyl-cyclopentyl)-acrylaldéhyde] yielded an MIC [1] of 1750 µg/mL (≈ 10.5 mM), an MIC [2] of 1000 µg/mL (≈ 6.02 mM) and an MIC [3] of 1000 µg/mL (≈ 6.02 mM). For the same compound, the MIC [4] was 1500 µg/mL (≈ 9.02 mM), the MIC [5] was 1250 µg/mL (≈ 7.52 mM) and the MIC [6] was 2500 µg/mL (≈ 15 mM). The MIC (Bacillus substilis [7]) was 1250 µg/mL (≈ 7.52 mM), the MBC [8] was 2000 µg/mL (≈ 12 mM) and the MBC [9] was 1500 µg/mL (≈ 9.02 mM). For the same compound, the MBC [10] was 1250 µg/mL (≈ 7.52 mM), the MBC [11] was 1750 µg/mL (≈ 10.5 mM) and the MBC [12] was 2000 µg/mL (≈ 12 mM). It also gave an MBC [13] of 3000 µg/mL (≈ 18 mM), an MBC [14] of 1750 µg/mL (≈ 10.5 mM) and an MBC (Bacillus substilis [15]) of 2500 µg/mL (≈ 15 mM). For the same compound, the “Apparition de l'apnée (en secondes)” value (cobayes [16]; 1 mg/kg) was 130 ± 23 secondes, the “Apparition de l'apnée (en secondes)” value (cobayes [16]; 10 mg/kg) was 169 ± 32 secondes and the LD50 (acute toxicity (LD50); inhaled or intranasal, aerosol, read-out: DL-50 aérosol) was 22 ± 3 mg/kg. It also gave an LD50 (acute toxicity (LD50); ip, i.p., read-out: DL-50 i.p.) of 18 ± 3 mg/kg, an LD50 (acute toxicity (LD50); iv, i.v., read-out: DL-50 i.v.) of 20 ± 3 mg/kg and an LD50 (acute toxicity (LD50); po, p.o., read-out: DL-50 p.o.) of 282 ± 3 mg/kg. The LD50 (acute toxicity (LD50); sc, s.c., read-out: DL-50 s.c.) was over 1000 mg/kg, the “inhibition par rapport aux témoins” value (rat femelle; dose 10 µg per rat) was 26% and the “inhibition par rapport aux témoins” value (rat femelle; dose 50 µg per rat) was 25%. The “inhibition par rapport aux témoins” value (rat femelle; dose 200 µg per rat) was 41%, the amplitude des contractions (iléon isolé de cobaye; 5 µg/ml) was 91 ± 37 and the amplitude des contractions (iléon isolé de cobaye; 10 µg/ml) was 52 ± 16. It also gave an inhibition at 5 µg/mL (iléon isolé de cobaye; Cavia porcellus, 2 min, 5 µg/ml, read-out: variation de l'amplitude par rapport aux animaux témoins) of 38%, an inhibition at 10 µg/mL (iléon isolé de cobaye; Cavia porcellus, 2 min, 10 µg/ml, read-out: variation de l'amplitude par rapport aux animaux témoins) of 65% and an EC50 (duodénum isolé de rat [17]) of 10 µg/mL (≈ 0.0602 mM). The EC50 (duodénum isolé de rat [18]) was 13 µg/mL (≈ 0.0782 mM), the “Dyspnée temps d'apparition (secondes)” value (cobayes [19]; 1 mg/kg) was 120 ± 52 secondes and the “Dyspnée temps d'apparition (secondes)” value (cobayes [19]; 10 mg/kg) was 130 ± 54 secondes.

For `COc1ccc2c(c1)c(CC(=O)O)c(C)n2C(=O)c1ccc(Cl)cc1` [Indometacine, reference compound], the “inhibition par rapport aux témoins” value (rat femelle; dose 200 µg per rat) was 57%.
